According to patent US20230107186A1, “COBICISTAT FOR PREVENTION AND/OR TREATMENT OF CORONAVIRUS INFECTIONS” (priority 2020, published 2023):
Where a SMILES comes first, the peptide text is derived from it. The star is where a group is joined. Cbz = O=C(OCc1ccccc1)*

Key:
[1] = system: SARS-CoV-2; experiment: Inhibition of SARS-CoV-2 replication in cell lines (viral RNA by qPCR); type: cell-based
[2] = molecular target: 3CLpro (Severe acute respiratory syndrome coronavirus 2, UniProt P0DTD1); experiment: 3CLpro FRET assay; type: biochemical, SARS-CoV-2
[3] = molecular target: SARS-CoV-2 S-protein (Severe acute respiratory syndrome coronavirus 2, UniProt P0DTC2); experiment: Syncytia formation assay in Vero E6 cells transfected with the S-protein; type: cell-based
[4] = Viability of uninfected cell lines (MTT assay); type: cell-based, human; african green monkey; conditions: human (Calu-3, T84); African green monkey (Vero E6); uninfected Calu-3, T84, Vero E6; 48 h; MTT; read-out: half cytotoxic concentration (CC50) range
Experimental: (§1) D) Uninfected cell lines of lung (Calu-3), gut (T84) and kidney (Vero E6) origin were left untreated or treated with serial dilutions of cobicistat. Forty-eight hours post-treatment cellular viability was measured by MTT assay. Data, expressed as mean±SD of three independent experiments, were normalized to the untreated control and CC50 values were calculated by nonlinear regression.
(§2) Cell viability was evaluated by (3-[4,5-dimethylthiazol-2-yl]-2,5 diphenyl tetrazolium bromide) (MTT) assay and by crystal violet staining as previously described (Shytaj et al. 2020; Feoktistova, Geserick, and Leverkus 2016). Briefly, the MTT assay was conducted using the CellTiter 96® Non-Radioactive Cell Proliferation Assay (MTT) (Promega; Madison, Wis., USA). Cells were plated in a 96-well plate at a concentration of 3×10^6 cells/mL in 100 μl of medium. The MTT solution (15 μl) was added to each well and, after 2-4 h, the reaction was stopped by the addition of 100 μl of 10% SDS. Absorbance values were acquired using an Infinite 200 PRO (Tecan, Männedorf, Switzerland) multimode plate reader at 570 nm wavelength.
(§3) Data normality assumptions were tested by D'Agostino & Pearson normality test (for >3). […] Synergy scores were calculated using the SynergyFinder web-tool (Ianevski et al. 2020) using the Zero Interaction Potency (ZIP) model (Yadav et al. 2015).

[5] = system: Calu-3, T84 and Vero E6 cells; experiment: Viability of uninfected cell lines (MTT assay); type: cell-based, human; african green monkey; conditions: cobicistat 5-10 μM
Experimental: as §1, §2, §3

[6] = system: SARS-CoV-2; type: cell-based; conditions: cobicistat 5-10 μM; MTT and crystal violet; Calu-3, T84, Vero E6
[7] = mice, 50 mg/Kg; cited from earlier work
[8] = molecular target: HIV-1 protease (Human immunodeficiency virus type 1 group M subtype B, UniProt P04585); conditions: read-out: EC50 against the HIV-1 protease; selleckchem product page; cited from earlier work
[9] = humans, standard dosing 150 mg/day; cited from earlier work

| Compound | viral RNA release in supernatant ([1]; Calu-3, Vero E6, T84, MOI 0.05 and 0.5, treated 2 h post-infection) | virus RNA amounts by qPCR, intracellular and supernatant ([1]; Calu-3 cells, time course, low micromolar concentrations) | IC50 ([1]; Severe acute respiratory syndrome coronavirus 2, 48 h, read-out: range of IC50 concentrations) [µM] | effect on catalytic activity of 3CLpro [2] | concentration range with effect in syncytia assay [3] [µM] | syncytia formation ([3]; 24 h post transfection) | CC50 at 48 h [4] [µM] | tolerability by uninfected cells [5] | viability of infected cells [6] | plasma levels compared with in vitro IC50 and CC50 [7] | EC50 [8] [µM] | maximum plasma concentrations [9] |
| --- | --- | --- | --- | --- | --- | --- | --- | --- | --- | --- | --- | --- |
| CC(C)c1nc(CN(C)C(=O)N[C@@H](CCN2CCOCC2)C(=O)N[C@H](CC[C@H](Cc2ccccc2)NC(=O)OCc2cncs2)Cc2ccccc2)cs1 [Cobicistat, 1,3-thiazol-5-ylmethyl [(2R,5R)-5-{[(2S)-2-({[(2-isopropyl-1,3-thiazol-4-yl)methyl](methyl)carbamoyl}amino)-4-(morpholin-4-yl)butanoyl]amino}-1,6-diphenylhexan-2-yl]carbamate] | dose dependent effect in decreasing viral RNA release | dose dependent inhibitory effect | 0.58 to 8.76 | inactive | 5 to 10 | decreased syncytia formation | 38.7 to 53 | well tolerated | partially rescue viability of infected cells | clearly above all IC50 values calculated in our experiments, while remaining below the CC50 concentrations | > 30 | ≈ 1 μM |
| CC(C)C[C@@H](C=O)NC(=O)[C@H](CC(C)C)NC(=O)[C@H](CC(C)C)NC(=O)OCc1ccccc1 [MG-132] (Cbz-Leu-Leu-Leu-aldehyde) | – | – | – | potently reduced the catalytic activity | – | – | – | – | – | – | – | – |
